Laboratory results as given in patent US10993940B2, “Methods of enhancing immune response” (NOVARTIS AG, priority 2016, dated 2021).
Entries after “also recorded” stand apart in the source; their conditions may differ.

Legend:
[1] = molecular target: mTORC1 and mTORC2 (Homo sapiens, UniProt P42345); details: low concentration; cited from earlier work
[2] = pH 3
[3] = test system: PI3K/mTOR; details: relatively higher concentrations; cited from earlier work
[4] = test system: respiratory tract infections; assay: Respiratory tract infections during the 6 weeks of study drug treatment; type: in vivo, human; details: BEZ235 10 mg daily
Method: (Top) The percentage of subjects in each cohort who reported having one or more respiratory tract infections during the 6 weeks they were treated with study drug is shown. (Bottom) The percentage of subjects who experienced respiratory tract infections of moderate severity during the 6 weeks they were treated with study drug is shown. No subjects in the study experienced respiratory tract infections that were assessed as severe. The numbers on top of each bar indicate the percent change relative to placebo.
The rate of infections during the 6 weeks subjects were treated with study drug was also examined. The main infections that occurred during the 6 weeks of study drug treatment were respiratory tract infections.

[5] = test system: immune system and interferon-induced gene expression in whole blood; assay: RNAseq gene expression profiling and pathway enrichment analysis in whole blood, baseline vs after 6 weeks of treatment; type: in vivo, Homo sapiens; details: for Up-regulated genes: Tukey outlier of log 2(FC post- vs pre-treatment); for Mean FC Genes In Pathway: whole blood, post- vs pre-treatment (6 weeks)
Method: Peripheral venous blood samples were collected into PAXgene Blood RNA tubes. Total RNA was purified from PAXgene collected blood and the quality and yield of the isolated RNA assessed using an Agilent 2100 Bioanalyzer (Agilent Technologies, Santa Clara, Calif., USA). RNA-Seq libraries were prepared from the RNA using the Illumina TruSeq Stranded Total RNA with the Ribo-Zero Globin Kit. This kit performed the removal of ribosomal RNA and globin mRNA in a single step. The obtained libraries were sequenced using the Illumina HiSeq2500 platform in paired-end mode to a read length of 2×76 base-pairs (bp). Images from the instrument were processed using the manufacturer's software to generate FASTQ sequence files. Read quality was assessed by running FastQC (version 0.10) on the FASTQ files. […] An average of 100 million 76 bp paired-end reads per sample were mapped to the Homo sapiens genome (version GRCh38) and RefSeq UCSC was used for human gene and transcript annotation. An in-house gene quantification pipeline was used to determine the number of counts mapping to each gene (Schuierer, S. & Roma, G. The exon quantification pipeline (EQP): a comprehensive approach to the quantification of gene, exon and junction expression from RNA-seq data. Nucleic acids research (2016)). On average, 88% of the total reads were mapped to the genome or the transcripts, and 30% of the aligned reads mapped to expressed sequences. […] Any gene with an average expression of less than one count per million in any treatment/time condition was considered undetectable and removed from further analysis. Count data for remaining genes was then normalized in R Statistical Computing Software (v3.1.3) using the voom normalization procedure located in the limma package (Law, C W, Chen, Y, Shi, W, and Smyth, G K (2014). Voom: precision weights unlock linear model analysis tools for RNA-seq read counts. Genome Biology 15, […]). […] Thus, we included the value of this principle component as an adjustment for technical variation in subsequent analysis. For each gene, the following linear mixed model was fit to the voom-normalized expression data, adjusting for relevant covariates (age, gender, and BMI) as well as PC1 using SAS v9.3 software. • proc mixed […]; • class SubjID Day Trt Gender; • model log 2[…] Age Gender Bmi/solution DDFM=KenwardRoger; • repeated Day/type=un subject=SubjID; • by gene; where log 2exprs refers to the voom-normalized expression measurement; Day refers to the timepoint the sample was taken (pre- or post-dose); Trt refers to the treatment group of the subject; PC1 refers to the value of PC1 for that sample; Age refers to the age of the subject; Gender refers to the sex of the subject; Bmi refers to the body mass index of the subject; and SubjID refers to the ID of the subject. Differential expression fold changes and p-values were obtained using the SAS estimate statement. […] These gene expression signatures consisted of the post-vs pre-treatment fold change and p-values for each treatment. […] Canonical pathways (c2.cp.v5.0.entrez.gmt) were downloaded from the canonical signatures database (http://software.broadinstitute.org/gsea/msigdb/). Signatures were defined as described in the “RNASeq Differential Expression Analysis” section. For each pathway and treatment response signature, a weighted KS test was performed as previously described (Subramanian et al. Gene set enrichment analysis: A knowledge-based approach for interpreting genome-wide expression profiles. Proc. Nat. Acad.

[6] = human, in vivo
Method: In some embodiments, dosing regimens contemplated herein comprise administering daily an amount of RAD001 ranging from about 0.015 mg to about 0.1 mg.

[7] = oncology indications; cited from earlier work
[8] = human, in vivo, 10 mg
[9] = molecular target: mTORC1 (Homo sapiens, UniProt P42345); details: very low concentration; cited from earlier work
[10] = test system: infections; assay: Overall infection rate recorded by diary during the year following initiation of study drug; type: in vivo, human; details: elderly >=65 years
[11] = test system: tooth or gum infections; assay: Tooth or gum infections during one year after study drug administration
Method: A total of 264 elderly volunteers ≥65 years of age, without unstable medical conditions, were enrolled in a randomized double blind placebo-controlled trial. […] Subjects were treated for 6 weeks with study drug and, after a 2 week drug-free interval, were given a 2014 seasonal influenza vaccine (Fluvax®, CSL Biotherapies). […] The subjects were then followed for another 9 months off study drug.
As an additional assessment of immune function, the overall infection rate in each treatment group was assessed by having subjects record any infections they experienced during the year following the initiation of study drug treatment in a diary that was reviewed by study investigators at each study visit.

[12] = test system: urinary tract infections; assay: Urinary tract infections during one year after study drug administration; type: in vivo, human
[13] = REACTOME_INTERFERON_ALPHA_BETA_SIGNALING
[14] = REACTOME_INTERFERON_GAMMA_SIGNALING

Q: Which “concentration at which mTORC1 and mTORC2 inhibition predominates” value [1] does the source give for Cn1c(=O)n(-c2ccc(C(C)(C)C#N)cc2)c2c3cc(-c4cnc5ccccc5c4)ccc3ncc21 [BEZ235, 2-methyl-2-[4-(3-methyl-2-oxo-8-quinolin-3-yl-2,3-dihydro-imidazo[4,5-c]quinolin-1-yl)-phenyl]-propionitrile] here?
A: less than 200 nmol/L

Q: What about the solubility [2] of the same molecule?
A: low

Q: And the “concentration of dual PI3K/mTOR inhibition” value [3]?
A: approximately 500 nmol/L

Q: What about the “incidence and severity of respiratory tract infections during the 6 weeks subjects were treated with study drug” value [4] of the same molecule?
A: reduction

Q: What about the Up-regulated genes ([5]; REACTOME_CYTOKINE_SIGNALING_IN_IMMUNE_SYSTEM, listed as Bez) of the same molecule?
A: IFITM3; FCGR1A; FCGR1B; HLA-DQA2; and CDK1

Q: What about the “Mean FC Genes In Pathway” value ([5]; REACTOME_CYTOKINE_SIGNALING_IN_IMMUNE_SYSTEM) of the same molecule?
A: 0.02

Q: What about the Up-regulated genes ([5]; REACTOME_IMMUNE_SYSTEM, listed as Bez) of the same molecule?
A: IFITM3; LILRB4; TRIM9; FCGR1A;; also recorded: FCGR1B; CD274; HLA-DQA2; RAP1GAP;; also recorded: TLR5; C1QA; C1QB; C3; C4BPA;; also recorded: PDCD1LG2; KLHL13; CD80; CDK1

Q: What about the “Mean FC Genes In Pathway” value ([5]; REACTOME_IMMUNE_SYSTEM) of the same molecule?
A: 0.01

Q: What about the Up-regulated genes [5, 13] of the same molecule?
A: IFITM3

Q: And the “Mean FC Genes In Pathway” value [5, 13]?
A: 0.03

Q: What about the Up-regulated genes [5, 14] of the same molecule?
A: FCGR1A; FCGR1B; HLA-DQA2

Q: And the “Mean FC Genes In Pathway” value [5, 14]?
A: 0.04

Q: And the Up-regulated genes ([5]; REACTOME_INTERFERON_SIGNALING)?
A: IFITM3; FCGR1A; FCGR1B, HLA-DQA2

Q: What about the “Mean FC Genes In Pathway” value ([5]; REACTOME_INTERFERON_SIGNALING) of the same molecule?
A: 0.03

Q: And the tolerability [6]?
A: well tolerated

Q: And the maximum tolerated dose [7]?
A: 1200 mg daily

Q: What about the “inter-patient variability, AUClast,ss % CV” value [8] of the same molecule?
A: 39%

Q: What about the “concentration at which mTORC1 inhibition predominates” value [9] of the same molecule?
A: less than or equal to 10 nmol/L

Q: With CO[C@H]1C[C@@H]2CC[C@@H](C)[C@@](O)(O2)C(=O)C(=O)N2CCCC[C@H]2C(=O)O[C@H]([C@H](C)C[C@@H]2CC[C@@H](OCCO)[C@H](OC)C2)CC(=O)[C@H](C)/C=C(\C)[C@@H](O)[C@@H](OC)C(=O)[C@H](C)C[C@H](C)/C=C/C=C/C=C/1C [RAD001, (1R,9S,12S,15R,16E,18R,19R,21R,23 S,24E,26E,28E,30S,32S,35R)-1,18-dihydroxy-12-{(1R)-2-[(1 S,3R,4R)-4-(2-hydroxyethoxy)-3-methoxycyclohexyl]-1-methylethyl}-19,30-dimethoxy-15,17,21,23,29,35-hexamethyl-11,36-dioxa-4-aza-tricyclo[30.3.1.04,9]hexatriaconta-16,24,26,28-tetraene-2,3,10,14,20-pentaone] as the molecule, how does the “Infection rate/person for one year after study drug administration” value ([10]; RAD001 0.1 mg daily for 6 weeks) read?
A: 2.0

Q: And the “Infection rate/person for one year after study drug administration” value ([10]; RAD001 0.5 mg daily for 6 weeks)?
A: 2.1

Q: And the “Number of tooth or gum infections per person for one year after study drug administration” value ([11]; RAD001 0.1 mg daily)?
A: .02

Q: What about the “Number of tooth or gum infections per person for one year after study drug administration” value ([11]; RAD001 0.5 mg daily) of the same molecule?
A: .02

Q: What about the “Percent of subjects with urinary tract infections during one year after study drug administration” value ([12]; RAD001 0.1 mg daily, N = 51) of the same molecule?
A: 10%

Q: And the “Percent of subjects with urinary tract infections during one year after study drug administration” value ([12]; RAD001 0.5 mg daily, N = 46)?
A: 11%
